Here are results for one substance from patent US8568736B2, “Polypeptide derivatives of parathyroid hormone (PTH)” (The General Hospital Corporation, priority 1999, dated 2013).

This test addresses T1, PTH-1 receptor (Homo sapiens, UniProt Q03431).
T1 sequence (Q03431 27-593): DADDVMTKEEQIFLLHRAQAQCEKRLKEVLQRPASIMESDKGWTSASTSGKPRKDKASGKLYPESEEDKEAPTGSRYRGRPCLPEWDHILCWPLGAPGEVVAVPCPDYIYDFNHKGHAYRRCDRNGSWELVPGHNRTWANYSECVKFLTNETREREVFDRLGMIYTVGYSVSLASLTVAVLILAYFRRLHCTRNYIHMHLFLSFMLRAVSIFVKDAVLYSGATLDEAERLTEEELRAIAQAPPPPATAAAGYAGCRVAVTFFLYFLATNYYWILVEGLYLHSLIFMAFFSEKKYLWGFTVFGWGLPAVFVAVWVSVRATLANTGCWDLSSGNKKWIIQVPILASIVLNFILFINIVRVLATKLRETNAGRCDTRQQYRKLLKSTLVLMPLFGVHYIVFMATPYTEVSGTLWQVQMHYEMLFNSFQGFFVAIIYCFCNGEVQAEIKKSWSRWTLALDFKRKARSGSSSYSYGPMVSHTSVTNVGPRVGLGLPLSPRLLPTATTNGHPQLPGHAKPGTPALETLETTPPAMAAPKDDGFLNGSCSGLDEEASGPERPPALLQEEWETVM
Nature of the test: Competition binding with 125I-rPTH(1-34) in HKRK-B7 cells. Set-up: expressed in transfected cells; host or cells: LLC-PK1 porcine kidney cells, clone HKRK-B7. The settings on record: 125I-rPTH(1-34) tracer. The method, then:
Binding reactions were performed with stably transfected HKRK-B7 cells in 24-well plates. Cells were rinsed with 0.5 mL of binding buffer (50 mM Tris-HCl, 100 mM NaCl, 5 mM KCl, 2 mM CaCl2, 5% heat-inactivated horse serum, 0.5% fetal bovine serum, adjusted to pH 7.7 with HCl), and treated successively with 100 μL binding buffer, 100 μL of binding buffer containing various amounts of unlabeled competitor ligand, and 100 μL of binding buffer containing ca. 100,000 cpm of ^125I-rPTH(1-34) (ca. 26 fmol). Incubations (final volume=300 μL) were at 15° C. for 4 h. Cells were then placed on ice, the binding medium was removed, and the monolayer was rinsed three times with 0.5 mL of cold binding buffer. The cells were subsequently lysed with 0.5 mL 5N NaOH and counted for radioactivity. The nonspecific binding for each experiment was determined by competition with a 1 μM dose of unlabeled rPTH(1-34). The maximum specific binding (B0) was the total radioactivity bound in the absence of unlabeled PTH ligand, corrected for nonspecific binding. Binding IC50 values were determined using nonlinear regression (see below).
All calculations were performed using Microsoft Excel. […] The predicted response (yp) for a given dose (x) of peptide was calculated using the following equation: yp=Min+[(Max−Min)/(1+(EC50/x)^slope)]. […]

No end group written: not given here.

For “AVAEIQLMHARAKHLNSMERVEWLRKKLQDVHNY-NH2 [Peptide #7]”, the “improvement in binding affinity as compared to rPTH(1-34)” value is on record as “about 2 fold”.
